Source: patent publication US20260374782A1, “NEW COMPOUNDS, PROCESSES FOR PREPARING THE SAME AND THEIR USE AS DRUGS” (B&A ONCOMEDICAL, priority 2022, published 2026)

Target: T1, NKCC1 (Homo sapiens, UniProt P55011)
T1 construct: endogenous in cells; host or cells: native HEK293 cells
T1 sequence (P55011 1-1212): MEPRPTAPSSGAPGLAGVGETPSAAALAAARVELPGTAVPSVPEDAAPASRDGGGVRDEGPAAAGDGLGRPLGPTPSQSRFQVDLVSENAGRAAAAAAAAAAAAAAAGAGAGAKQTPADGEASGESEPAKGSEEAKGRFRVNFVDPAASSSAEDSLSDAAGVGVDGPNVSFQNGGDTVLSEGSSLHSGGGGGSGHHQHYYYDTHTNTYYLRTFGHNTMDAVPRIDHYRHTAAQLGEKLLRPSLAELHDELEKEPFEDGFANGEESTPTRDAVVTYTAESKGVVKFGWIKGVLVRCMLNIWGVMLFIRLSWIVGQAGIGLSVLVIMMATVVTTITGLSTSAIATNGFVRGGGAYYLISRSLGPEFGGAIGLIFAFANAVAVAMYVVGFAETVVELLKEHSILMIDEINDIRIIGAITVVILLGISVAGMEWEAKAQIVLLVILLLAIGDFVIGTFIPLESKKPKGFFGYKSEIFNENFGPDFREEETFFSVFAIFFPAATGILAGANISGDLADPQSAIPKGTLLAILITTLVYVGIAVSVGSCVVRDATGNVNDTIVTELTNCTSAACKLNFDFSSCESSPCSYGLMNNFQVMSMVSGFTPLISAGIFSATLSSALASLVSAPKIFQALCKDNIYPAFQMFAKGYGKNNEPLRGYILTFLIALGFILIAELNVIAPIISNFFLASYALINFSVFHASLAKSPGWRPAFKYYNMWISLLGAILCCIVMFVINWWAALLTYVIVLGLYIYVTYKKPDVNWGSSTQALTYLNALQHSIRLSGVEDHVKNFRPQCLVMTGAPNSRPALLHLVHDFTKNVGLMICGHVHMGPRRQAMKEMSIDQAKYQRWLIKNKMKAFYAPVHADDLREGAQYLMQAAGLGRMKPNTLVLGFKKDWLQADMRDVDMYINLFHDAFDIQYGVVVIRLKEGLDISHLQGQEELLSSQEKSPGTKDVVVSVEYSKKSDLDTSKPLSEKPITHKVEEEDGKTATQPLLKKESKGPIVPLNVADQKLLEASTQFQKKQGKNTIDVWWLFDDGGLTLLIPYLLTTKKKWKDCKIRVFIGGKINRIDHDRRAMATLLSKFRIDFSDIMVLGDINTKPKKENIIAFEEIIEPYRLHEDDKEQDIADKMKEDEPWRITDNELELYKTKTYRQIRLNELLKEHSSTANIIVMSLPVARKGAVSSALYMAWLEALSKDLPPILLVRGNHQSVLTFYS
Experiment: NKCC1-mediated K+ influx (83Rb tracer uptake) in native HEK293 cells, hypertonic saline, 100 μM ouabain
Assay type: cell-based
Conditions: HEK293, no drug = 1000, 20 μM bumetanide = 0; for inhibition at 20 µM: read-out: NKCC1 mediated flux inhibition at 20 μM (%); for inhibition at 2 µM: read-out: NKCC1 mediated flux inhibition at 2 μM (%)
Text: The compounds of the invention have been tested for evaluating their potency in inhibiting the NKCC1 channel. The test used is a cellular assay expressing the NKCC1 channel: HEK293 cells are human cells derived from embryonic kidney. The inhibitory activity of the compounds has been evaluated in measuring the modification of the potassium flux at 2 concentrations, as described hereafter in the biological protocol.
HEK293 cells are human cells derived from embryonic kidney. They express at their plasma membranes proteins that transport potassium (K^+). Among these proteins is the Na—K-2Cl cotransporter or NKCC1. This transporter contributes to 40-50% of K^+ influx into the cells. The remaining of K^+ transport is mediated by the Na^+/K^+-ATPase (also known as Na^+ pump or Na^+/K^+ pump), which also contributes some 40-50% of the influx basal flux of 5-10%, which is mainly due to K^+ channels (FIG. 1A). Thus, the HEK293 cell in culture is an ideal model to study the function of NKCC1 and test compounds that inhibits its transport.
The assay to measure NKCC1 function was optimized to obtain the next signal to noise ratio: • a. A slightly hypertonic saline was used to stimulate NKCC1 function. […] By consistent use of this simple manipulation, the NKCC1 signal was enhanced. • b. Ouabain, an inhibitor of the Na^+/K^+ pump, was used at 100 μM. […] A radioactive isotope was used to trace the inward movement of K^+ into the cell (influx). This allowed for highly precise measurements of K^+ influx. Because radioactive isotopes of K^+ had very short half-lives, radioactive isotopes of Rb^+ were used. Rubidium was a monovalent cation which was readily transporter at the K^+ binding site by many transporters and channels. Rb^+ was a congener of K^+, being transported undistinguishably from K^+. ^83Rb (half-life of 83 days) was used since ^86Rb (half-life of 19.6 days) is no longer commercially available. The ^83Rb isotope was used as a tracer, i.e. at a very low amounts to trace the movement of K^+.
K^+ influx measured in native HEK293 was in the range of 7000-9000 pmoles K^+ per mg protein per min. In the presence of 20 μM Ref 1, the flux was reduced to 600-900 pmoles K^+ per mg protein per min. Thus, there was a very solid dynamic range. In each experiment, the flux without Ref 1 was set at 1000 (equivalent to 100.0%) and the flux with 20 μM bumetanide was set at 0 (equivalent to 0%).
For the flux experiments, 35-mm culture dishes were coated with 0.1 mg/mL poly-L-lysine and placed in large 20×20 [square] dishes. For convenience, the poly-L-lysine was placed in the dishes the day before the experiment. Before plating the cells, the poly-L-lysine was aspirated, and each dish washed twice with 1 mL sterile water. Cells from 3 confluent 10-cm dishes were detached with trypsin and resuspended into 49 mL complete medium. Cells (2 mL/35-mm dish) were plated in 24 dishes and allowed to attach for at least 2 hours prior to the flux. This setup allowed the measurement of 8 conditions in triplicates. For the flux, culture medium was aspirated and replaced with 1 mL saline for a preincubation period of 15 min. The saline was aspirated and replaced with 1 mL identical saline containing 0.25 μCi/mL 83Rb for 15 min. Following the uptake period, the radioactive solution was aspirated, and the cells washed 3 times with ice-cold saline. Cells were then lyzed with 500 μl 0.25N NaOH for 1 hour, neutralized with 250 μL glacial acetic acid and 300 μL and 30 μL aliquots were used for μ-scintillation counting and protein assays, respectively. Two 5 μL of each flux solution was used to determine cpm and relate those cpm to nmoles K^+. Potassium influx was expressed in nmoles K^+ per mg protein per min. Note that within an experiment, groups of 3 dishes were separated 2 min apart for easy handling. Also note that since all dishes were plated with a homogeneous cell suspension, and all dishes were identical, the protein content was measured from a subset of dishes. […]

Row | inhibition at 20 µM [%] | inhibition at 2 µM [%] | SMILES
1 | 10 to 30 | – | CCCCNc1cc(C(=O)OC)cc(S(=N)(=O)NCCc2nccs2)c1Oc1ccccc1 (stereo not shown) [Compound 39, methyl 3-(butylamino)-4-phenoxy-5-[(2-thiazol-2-ylethylamino)sulfonimidoyl]benzoate]
2 | 30 to 50 | – | CCCCNc1cc(C(=O)OC)cc(S(=N)(=O)Nc2nccn2C)c1Oc1ccccc1 (stereo not shown) [Compound 40, methyl 3-(butylamino)-5-[[(1-methylimidazol-2-yl)amino]sulfonimidoyl]-4-phenoxy-benzoate]
3 | 30 to 50 | – | CCCCNc1cc(C(=O)OC)cc(S(=N)(=O)Nc2ccccn2)c1Oc1ccccc1 (stereo not shown) [Compound 41, methyl 3-(butylamino)-4-phenoxy-5-[(2-pyridylamino)sulfonimidoyl]benzoate]
4 | 10 to 30 | 10 to 30 | CCCCNc1cc(C(=O)OC)cc(S(=N)(=O)NCc2ccn(C)n2)c1Oc1ccccc1 (stereo not shown) [Compound 42, methyl 3-(butylamino)-5-[[(1-methylpyrazol-3-yl)methylamino]sulfonimidoyl]-4-phenoxy-benzoate]
5 | 10 to 30 | 30 to 50 | CCCCNc1cc(C(=O)OC)cc(S(=N)(=O)Nc2nccs2)c1Oc1ccccc1 (stereo not shown) [Compound 43, methyl 3-(butylamino)-4-phenoxy-5-[(thiazol-2-ylamino)sulfonimidoyl]benzoate]
6 | 10 to 30 | 30 to 50 | CCCCNc1cc(C(=O)OC)cc(S(=N)(=O)Nc2ccncc2)c1Oc1ccccc1 (stereo not shown) [Compound 44, methyl 3-(butylamino)-4-phenoxy-5-[(4-pyridylamino)sulfonimidoyl]benzoate]
7 | 30 to 50 | 30 to 50 | CCCCNc1cc(C(=O)OC)cc(S(=N)(=O)Nc2ccnnc2)c1Oc1ccccc1 (stereo not shown) [Compound 45, methyl 3-(butylamino)-4-phenoxy-5-[(pyridazin-4-ylamino)sulfonimidoyl]benzoate]
8 | 30 to 50 | 30 to 50 | CCCCNc1cc(C(=O)OC)cc(S(=N)(=O)NCCCC)c1Oc1ccccc1 (stereo not shown) [Compound 46, methyl 3-(butylamino)-5-(butylaminosulfonimidoyl)-4-phenoxy-benzoate]
9 | 30 to 50 | 30 to 50 | CCCCNc1cc(C(=O)OC)cc(S(=N)(=O)NC23CC(C2)C3)c1Oc1ccccc1 (stereo not shown) [Compound 47, methyl 3-[(1-bicyclo[1.1.1]pentanylamino)sulfonimidoyl]-5-(butylamino)-4-phenoxy-benzoate]
10 | 50 to 75 | 30 to 50 | CCCCNc1cc(C(=O)OC)cc(S(=N)(=O)NC2CN3CCC2CC3)c1Oc1ccccc1 (stereo not shown) [Compound 48, methyl 3-(butylamino)-4-phenoxy-5-[(quinuclidin-3-ylamino)sulfonimidoyl]benzoate]

The remaining lines, values behind:

Row | SMILES | inhibition at 20 µM [%] | inhibition at 2 µM [%]
11 | CCCCNc1cc(C(=O)OC)cc(S(=N)(=O)Nc2ccccc2Cl)c1Oc1ccccc1 (stereo not shown) [Compound 26, methyl 3-(butylamino)-5-[(2-chloroanilino)sulfonimidoyl]-4-phenoxy-benzoate] | 10 to 30 | –
12 | CCCCNc1cc(C(=O)OC)cc(S(=N)(=O)Nc2ccc(Cl)cc2)c1Oc1ccccc1 (stereo not shown) [Compound 27, methyl 3-(butylamino)-5-[(4-chloroanilino)sulfonimidoyl]-4-phenoxy-benzoate] | 10 to 30 | –
13 | CCCCNc1cc(C(=O)OC)cc(S(=N)(=O)Nc2cccc(OC(F)F)c2)c1Oc1ccccc1 (stereo not shown) [Compound 28, methyl 3-(butylamino)-5-[[3-(difluoromethoxy)anilino]sulfonimidoyl]-4-phenoxy-benzoate] | 30 to 50 | –
14 | CCCCNc1cc(C(=O)OC)cc(S(=N)(=O)NC2CCOCC2)c1Oc1ccccc1 (stereo not shown) [Compound 29, methyl 3-(butylamino)-4-phenoxy-5-[(tetrahydropyran-4-ylamino)sulfonimidoyl]benzoate] | 10 to 30 | –
15 | CCCCNc1cc(C(=O)OC)cc(S(=N)(=O)NC2CCN(C)CC2)c1Oc1ccccc1 (stereo not shown) [Compound 30, methyl 3-(butylamino)-5-[[(1-methyl-4-piperidyl)amino]sulfonimidoyl]-4-phenoxy-benzoate] | 30 to 50 | –
16 | CCCCNc1cc(C(=O)OC)cc(S(=N)(=O)Nc2ncccn2)c1Oc1ccccc1 (stereo not shown) [Compound 31, methyl 3-(butylamino)-4-phenoxy-5-[(pyrimidin-2-ylamino)sulfonimidoyl]benzoate] | 10 to 30 | –
17 | CCCCNc1cc(C(=O)OC)cc(S(=N)(=O)NCCc2ccccc2)c1Oc1ccccc1 (stereo not shown) [Compound 34, methyl 3-(butylamino)-4-phenoxy-5-[(2-phenylethylamino)sulfonimidoyl]benzoate] | 30 to 50 | –
18 | CCCCNc1cc(C(=O)OC)cc(S(=N)(=O)NCCc2cccc(Cl)c2)c1Oc1ccccc1 (stereo not shown) [Compound 35, methyl 3-(butylamino)-5-[[2-(3-chlorophenyl)ethylamino]sulfonimidoyl]-4-phenoxy-benzoate] | 30 to 50 | –
19 | CCCCNc1cc(C(=O)OC)cc(S(=N)(=O)NCc2cccnc2)c1Oc1ccccc1 (stereo not shown) [Compound 36, methyl 3-(butylamino)-4-phenoxy-5-[(3-pyridylmethylamino)sulfonimidoyl]benzoate] | 30 to 50 | –
20 | CCCCNc1cc(C(=O)OC)cc(S(=N)(=O)NCCc2cccnc2)c1Oc1ccccc1 (stereo not shown) [Compound 37, methyl 3-(butylamino)-4-phenoxy-5-[[2-(3-pyridyl)ethylamino]sulfonimidoyl]benzoate] | 10 to 30 | –
21 | CCCCNc1cc(C(=O)OC)cc(S(=N)(=O)NCc2nccs2)c1Oc1ccccc1 (stereo not shown) [Compound 38, methyl 3-(butylamino)-4-phenoxy-5-[(thiazol-2-ylmethylamino)sulfonimidoyl]benzoate] | 10 to 30 | –
